We go through 1 molecule from US20220125837A1, “METHODS FOR CONTROLLED ELIMINATION OF THERAPEUTIC CELLS” (Bellicum Pharmaceuticals, Inc., priority 2014, published 2022).

Data set [1] concerns differentiated iCasp9-positive MSCs. The data set is described as follows: Apoptosis of differentiated iCasp9 MSCs after CID (TUNEL, cell density). As to conditions: adipocytic differentiation; 50 nM CID; 24 hours; from 584.
For data set [2], the system named is iCasp9M.IRES.GFPhigh-transduced CTLs. The data set is described as follows: SCID mouse-human xenograft: elimination of iCasp9M CTLs by CID. To be noted: single dose of CID (50 μg AP20187 intraperitoneally), three days after. The format is in vivo, NOD/SCID mice. The procedure:
Non-obese diabetic severe combined immunodeficient (NOD/SCID) mice, 6 to 8 weeks of age, were irradiated (250 rad) and injected subcutaneously in the right flank with 10×10^6 to 15×10^6 LCLs resuspended in Matrigel (BD Bioscience). Two weeks later mice bearing tumors that were approximately 0.5 cm in diameter were injected into the tail vein with a 1:1 mixture of nontransduced and iCasp9.I.GFPhigh-transduced EBV CTLs (total 15×10^6). At 4 to 6 hours prior and 3 days after CTL infusion, mice were injected intraperitoneally with recombinant hIL-2 (2000 U; Proleukin; Chiron). […] By FACS analysis, the number of GFP+ cells within the gated CD3^+ population was evaluated. […]
The function of iCasp9M also was evaluated in transduced EBV-CTLs in vivo. […] Three days after CID/carrier administration, tumors were analyzed for human CD3^+/GFP^+ cells. […]
The function of iCasp9M in vivo, was assayed. […] On day 3 after CTL administration, mice received either CID (50 μg AP20187; (black diamonds, n=6) or carrier only (black squares, n=5) and on day 6 the presence of human CD3+/GFP+ T cells in the tumors was analyzed. Human CD3+ T cells isolated from the tumors of a control group of mice that received only nontransduced CTLs (15×10^6 CTLs; n=4) were used as a negative control for the analysis of CD3+/GFP+ T cells within the tumors.
In general terms: In xenograft studies the graft and the host belong to different species.

In data set [3] the test system is gene-modified allodepleted cells (SFG.iCasp9.2A.CD19). Briefly: Induction of apoptosis with AP20187 in gene-modified allodepleted cells (annexin V/7-AAD). Type of data set: cell-based, human. How it is done: Suicide gene functionality was assessed by adding a small molecule synthetic homodimerizer, AP20187 (Ariad Pharmaceuticals; Cambridge, Mass.), at 10 nM final concentration the day following CD19 immunomagnetic selection. Cells were stained with annexin V and 7-amino-actinomycin (7-AAD)(BD Pharmingen) at 24 hours and analyzed by flow cytometry. Cells negative for both annexin V and 7-AAD were considered viable, cells that were annexin V positive were apoptotic, and cells that were both annexin V and 7-AAD positive were necrotic. The percentage killing induced by dimerization was corrected for baseline viability as follows: Percentage killing=100%−(% Viability in AP20187-treated cells÷% Viability in non-treated cells).
The day following immunomagnetic selection, 10 nM of the chemical inducer of dimerization, AP20187, was added to induce apoptosis, which appeared within 24 hours.

The subject of a further data set is iCasp9-transduced MSCs. Briefly: Apoptosis of iCasp9-ΔCD19 transduced undifferentiated MSCs after CID (annexin V/7-AAD).
The test system of the next data set is virus-specific T cells. The data set is described as follows: AP20187 on allostimulated gene-modified cells, pentamer analysis of virus-specific T cells. Type of data set: cell-based, human. To be noted: 10 nM; after 4 days reactivation with allogeneic PBMC. How it is done: In some experiments, cells also were cultured for 3 weeks post transduction and stimulated with 30G-irradiated allogeneic PBMC at a responder:stimulator ratio of 1:1. After 4 days of co-culture, a portion of cells was treated with 10 nM AP20187. Killing was measured by annexin V/7-AAD staining at 24 hours, and the effect of dimerizer on bystander virus-specific T cells was assessed by pentamer analysis on AP20187-treated and untreated cells.
An observation of note was that many virus-specific T cells were spared when dimerizer was used to deplete gene-modified cells that have been re-activated with allogeneic PBMC, rather than by non-specific mitogenic stimuli. […] Gene-modified allodepleted cells were maintained in culture for 3 weeks post-transduction to allow transgene down-modulation. Cells were stimulated with allogeneic PBMC for 4 days, following which a portion was treated with 10 nM AP20187.
The frequency of EBV-specific T cells and CMV-specific T cells were quantified by pentamer analysis before allostimulation, after allostimulation, and after treatment of allostimulated cells with dimerizer. The percentage of virus-specific T cells decreased after allostimulation. Following treatment with dimerizer, virus-specific T cells were partially and preferentially retained.

Another data set concerns MT-2 cells. Briefly: CID-induced apoptosis (annexin V) in transduced MT-2 cells. The format is cell-based, human. As to conditions: 10 nM CID for 8 hours.
Where [4] appears, read: large-scale CD19 selection (n=3).

Consider `CC[C@H](C(=O)N1CCCC[C@H]1C(=O)O[C@H](CCc1ccc(OC)c(OC)c1)c1cccc(OCC(=O)NCC(CNC(=O)COc2cccc([C@@H](CCc3ccc(OC)c(OC)c3)OC(=O)[C@@H]3CCCCN3C(=O)[C@@H](CC)c3cc(OC)c(OC)c(OC)c3)c2)CN(C)C)c1)c1cc(OC)c(OC)c(OC)c1` [AP20187], for which the “cell density after CID” value in data set [1] was below 14 cells/mm2. In addition, the “reduction in the number of human CD3+/GFP+ T cells in tumors vs carrier” value is reported as above 99% in data set [2] (listed as CID) and “more than 99%” in data set [2] (listed as dimerizer). For the same molecule, the “Killing efficiency after correction for baseline viability” value in data set [3] (10 nM, 24 hours) is “about 92.9%±3.8%”. Further, the “AP20187-treated cells remaining viable” value in data set [3] (10 nM, 24 hours, day following CD19 selection) is given as “about 5.5%±2.5%”. Besides, the “apoptosis after treatment with dimerizer” value in data set [3] (iCasp9 donor T cells) is recorded as above 90%. Besides, the “mean viability with AP20187” value in data set [3] (setting [4]) is “about 3.9%”; in data set [3] (small-scale selection (n=5)), “about 6.6%”. For the same molecule, the results for the percentage killing entry in data set [3] (setting [4]) and in data set [3] (small-scale selection (n=5)) were “about 95.4%” and “about 91.4%”, respectively. In addition, in the data set on iCasp9-transduced MSCs (50 nM CID, 24 hrs), the “apoptosis index of iCasp9-negative cells” value is 20±7%. For the same molecule, in the data set on iCasp9-transduced MSCs (50 nM CID, representative FACS), the “annexin positive, negative population (iCasp neg/CID)” value stood at 19%. For the same molecule, the “annexin positive, non-transduced control MSC (Control/CID)” value in the data set with iCasp9-transduced MSCs (50 nM CID, representative FACS) was determined as 15%. Further, the “apoptotic death of iCasp9-positive cells” value in the data set with iCasp9-transduced MSCs (50 nM CID, within 24 hrs) is 93±1%. The “immunoselected iCasp9-CD19-positive cells apoptotic after CID” value in the data set with iCasp9-transduced MSCs (magnetic immunoselection) was “More than 95%”. Besides, in the data set on virus-specific T cells, the “effect on virus-specific T cells” value is recorded as “spares (and thereby enriches) viral reactive subpopulations”. Moreover, the figures for the “apoptosis (annexin-V staining)” value in the data set with MT-2 cells (iCasp9M-transduced MT-2) and in the data set on MT-2 cells (iFas-transduced MT-2) were 57.9%+/−11.9% and 19.3%+/−8.4%, respectively.
